Reference: patent US20260028354A1, “TETRAHYDRONAPHTHALENE DERIVATIVES AS ESTROGEN RECEPTOR DEGRADERS” (REGENT OF THE UNIVERSITY OF MICHIGAN, priority 2022, published 2026)
Like-named read-outs stand apart in the source and are kept apart here.

Assays:
ER = ER (Homo sapiens (Human), UniProt P03372); assay: In-cell western blot analysis of ER for "B" compounds; type: cell-based; settings: 16 hours, read-out: ICW DC50
How it was run: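 In-cell western: fixed cells stained with primary antibodies (2 h, RT), then anti-rabbit-680 and anti-mouse-800 secondaries (1:1000, 1 h, RT), imaged on a LI-COR plate reader. Relative ER level in treated wells expressed against untreated and DMSO-treated wells set as 100%.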

[1] = Cell growth assay (WST-8) for "B" compounds; type: cell-based; settings: T47D, read-out: Cell growth Inhibition in T47D cell line IC50
How it was run: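 Cells seeded at 1500/well overnight, then exposed to compounds for 4 days. 10% WST-8 added for 2.5 h at 37 °C and absorbance read at 450 nm. Growth given as absorbance relative to vehicle control, from three repeats.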

Chain of ER (P03372 whole entry): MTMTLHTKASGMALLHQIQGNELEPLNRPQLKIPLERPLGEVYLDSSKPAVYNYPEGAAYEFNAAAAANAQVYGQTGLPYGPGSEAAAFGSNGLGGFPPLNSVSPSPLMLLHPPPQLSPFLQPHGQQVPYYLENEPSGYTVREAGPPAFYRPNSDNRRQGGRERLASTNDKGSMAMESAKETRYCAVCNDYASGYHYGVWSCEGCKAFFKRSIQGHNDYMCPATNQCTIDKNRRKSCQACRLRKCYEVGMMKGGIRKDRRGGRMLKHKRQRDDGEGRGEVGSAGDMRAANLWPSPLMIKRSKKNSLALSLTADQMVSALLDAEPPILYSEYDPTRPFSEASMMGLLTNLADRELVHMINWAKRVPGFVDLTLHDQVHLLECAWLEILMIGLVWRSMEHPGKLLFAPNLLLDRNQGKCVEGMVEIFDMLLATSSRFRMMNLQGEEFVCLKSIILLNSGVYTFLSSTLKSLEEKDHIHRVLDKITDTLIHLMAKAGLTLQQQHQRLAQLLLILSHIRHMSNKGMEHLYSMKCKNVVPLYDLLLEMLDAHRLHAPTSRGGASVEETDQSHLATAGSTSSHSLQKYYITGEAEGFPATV

SMILES	DC50 (ER) [nM]	IC50 ([1]; T47D cell line) [nM]	IC50 [1] [nM]
O=C1CCC(N2Cc3c(ccc4c3OC[C@H]3CN(C[C@@H]5CCN(c6ccc([C@@H]7c8ccc(O)cc8CC[C@@H]7c7ccccc7)cc6)C5)CCN43)C2=O)C(=O)N1 (stereo partly drawn) [Compound B215, 3-((R)-7-(((S)-1-(4-((1R,2S)-6-hydroxy-2-phenyl-1,2,3,4-tetrahydronaphthalen-1-yl)phenyl)pyrrolidin-3-yl)methyl)-1-oxo-1,3,5,5a,6,7,8,9-octahydro-2H-pyrazino[1′,2′:4,5][1,4]oxazino[2,3-e]isoindol-2-yl)piperidine-2,6-dione]	10 to 100	1 to 10	
O=C1CCC(N2Cc3c(ccc4c3OC[C@H]3CN(C[C@H]5CCN(c6ccc([C@@H]7c8ccc(O)cc8CC[C@@H]7c7ccccc7)cc6)C5)CCN43)C2=O)C(=O)N1 (stereo partly drawn) [Compound B216, 3-((R)-7-(((R)-1-(4-((1R,2S)-6-hydroxy-2-phenyl-1,2,3,4-tetrahydronaphthalen-1-yl)phenyl)pyrrolidin-3-yl)methyl)-1-oxo-1,3,5,5a,6,7,8,9-octahydro-2H-pyrazino[1′,2′:4,5][1,4]oxazino[2,3-e]isoindol-2-yl)piperidine-2,6-dione]	10 to 100	> 10	
O=C1CCC(N2Cc3cc4c(cc3C2=O)CC2(C4)CN(C[C@@H]3CCN(c4ccc([C@@H]5c6ccc(O)cc6CC[C@@H]5c5ccccc5)cc4)C3)C2)C(=O)N1 (stereo partly drawn) [Compound B217, 3-(1-(((S)-1-(4-((1R,2S)-6-hydroxy-2-phenyl-1,2,3,4-tetrahydronaphthalen-1-yl)phenyl)pyrrolidin-3-yl)methyl)-1′-oxo-5′,7′-dihydro-1'H-spiro[azetidine-3,6′-cyclopenta[f]isoindol]-2'(3'H)-yl)piperidine-2,6-dione]	> 100	1 to 10	
O=C1CCC(N2Cc3c(ccc4c3OC[C@H]3CN(CC(=O)N5CC(Nc6ccc([C@@H]7c8ccc(O)cc8CC[C@@H]7c7ccccc7)cc6)C5)CCN43)C2=O)C(=O)N1 (stereo partly drawn) [Compound B220, 3-((R)-7-(2-(3-((4-((1R,2S)-6-hydroxy-2-phenyl-1,2,3,4-tetrahydronaphthalen-1-yl)phenyl)amino)azetidin-1-yl)-2-oxoethyl)-1-oxo-1,3,5,5a,6,7,8,9-octahydro-2H-pyrazino[1′,2′:4,5][1,4]oxazino[2,3-e]isoindol-2-yl)piperidine-2,6-dione]	> 100	< 1	
O=C1CC[C@H](NC(=O)c2ccc3c(n2)OC[C@H]2CN(CC4CCN(c5ccc([C@@H]6c7ccc(O)cc7CC[C@@H]6c6ccccc6)cc5)CC4)CCN32)C(=O)N1 [Compound B224, (R)-N-((S)-2,6-dioxopiperidin-3-yl)-3-((1-(4-((1R,2S)-6-hydroxy-2-phenyl-1,2,3,4-tetrahydronaphthalen-1-yl)phenyl)piperidin-4-yl)methyl)-1,2,3,4,4a,5-hexahydropyrazino[1,2-d]pyrido[2,3-b][1,4]oxazine-8-carboxamide]	> 100	1 to 10	
O=C1CC[C@H](NC(=O)c2ccc3c(n2)OC[C@H]2CN(CC4CC5(CCN(c6ccc([C@@H]7c8ccc(O)cc8CC[C@@H]7c7ccccc7)cc6)CC5)C4)CCN32)C(=O)N1 [Compound B225, (R)-N-((S)-2,6-dioxopiperidin-3-yl)-3-((7-(4-((1R,2S)-6-hydroxy-2-phenyl-1,2,3,4-tetrahydronaphthalen-1-yl)phenyl)-7-azaspiro[3.5]nonan-2-yl)methyl)-1,2,3,4,4a,5-hexahydropyrazino[1,2-d]pyrido[2,3-b][1,4]oxazine-8-carboxamide]	10 to 100	1 to 10	
O=C1CC[C@H](N2Cc3cc4c(cc3C2=O)OC[C@@H]2CN(CC3COC5(CCN(c6ccc([C@@H]7c8ccc(O)cc8CC[C@@H]7c7ccccc7)cc6)CC5)C3)CCN42)C(=O)N1 (stereo partly drawn) [Compound B227, (3S)-3-((4aS)-3-((8-(4-((1R,2S)-6-hydroxy-2-phenyl-1,2,3,4-tetrahydronaphthalen-1-yl)phenyl)-1-oxa-8-azaspiro[4.5]decan-3-yl)methyl)-8-oxo-1,2,3,4,4a,5,8,10-octahydro-9H-pyrazino[1′,2′: 4,5][1,4]oxazino[2,3-f]isoindol-9-yl)piperidine-2,6-dione]	< 10	< 1	
O=C1CCC(N2Cc3c(ccc4c3OCC43CCN(CC4CCC5(CC4)CN(c4ccc([C@@H]6c7ccc(O)cc7CC[C@@H]6c6ccccc6)cc4)C5)CC3)C2=O)C(=O)N1 (stereo partly drawn) [Compound B228, 3-(1′-((2-(4-((1R,2S)-6-hydroxy-2-phenyl-1,2,3,4-tetrahydronaphthalen-1-yl)phenyl)-2-azaspiro[3.5]nonan-7-yl)methyl)-6-oxo-6,8-dihydro-2H,7H-spiro[furo[2,3-e]isoindole-3,4′-piperidin]-7-yl)piperidine-2,6-dione]	< 10		1 to 10
O=C1CCC(N2Cc3c(ccc4c3OCC43CCN(CC4COC5(CCN(c6ccc([C@@H]7c8ccc(O)cc8CC[C@@H]7c7ccccc7)cc6)CC5)C4)CC3)C2=O)C(=O)N1 (stereo partly drawn) [Compound B229, 3-(1′-((8-(4-((1R,2S)-6-hydroxy-2-phenyl-1,2,3,4-tetrahydronaphthalen-1-yl)phenyl)-1-oxa-8-azaspiro[4.5]decan-3-yl)methyl)-6-oxo-6,8-dihydro-2H,7H-spiro[furo[2,3-e]isoindole-3,4′-piperidin]-7-yl)piperidine-2,6-dione]	10 to 100		1 to 10
O=C1CCC(N2Cc3c(ccc4c3OC[C@H]3CN(CC5COC6(C5)CN(c5ccc([C@@H]7c8ccc(O)cc8CC[C@@H]7c7ccccc7)cc5)C6)CCN43)C2=O)C(=O)N1 (stereo partly drawn) [Compound B230, 3-((5aR)-7-((2-(4-((1R,2S)-6-hydroxy-2-phenyl-1,2,3,4-tetrahydronaphthalen-1-yl)phenyl)-5-oxa-2-azaspiro[3.4]octan-7-yl)methyl)-1-oxo-1,3,5,5a,6,7,8,9-octahydro-2H-pyrazino[1′,2′:4,5][1,4]oxazino[2,3-e]isoindol-2-yl)piperidine-2,6-dione]	< 10	< 1	
O=C1CCC(N2Cc3cc4c(cc3C2=O)OC[C@@H]2CN(CC3COC5(C3)CN(c3ccc([C@@H]6c7ccc(O)cc7CC[C@@H]6c6ccccc6)cc3)C5)CCN42)C(=O)N1 (stereo partly drawn) [Compound B231, 3-((4aS)-3-((2-(4-((1R,2S)-6-hydroxy-2-phenyl-1,2,3,4-tetrahydronaphthalen-1-yl)phenyl)-5-oxa-2-azaspiro[3.4]octan-7-yl)methyl)-8-oxo-1,2,3,4,4a,5,8,10-octahydro-9H-pyrazino[1′,2′:4,5][1,4]oxazino[2,3-f]isoindol-9-yl)piperidine-2,6-dione]	10 to 100	< 1	
O=C1CCC(N2Cc3c(ccc4c3OC[C@H]3CN(CC5CC6(CCN(c7ccc([C@@H]8c9ccc(O)cc9CC[C@@H]8c8ccccc8)cc7)C6)C5)CCN43)C2=O)C(=O)N1 (stereo partly drawn) [Compound B232, 3-((R)-7-((6-(4-((1R,2S)-6-hydroxy-2-phenyl-1,2,3,4-tetrahydronaphthalen-1-yl)phenyl)-6-azaspiro[3.4]octan-2-yl)methyl)-1-oxo-1,3,5,5a,6,7,8,9-octahydro-2H-pyrazino[1′,2′:4,5][1,4]oxazino[2,3-e]isoindol-2-yl)piperidine-2,6-dione]	> 100	1 to 10	
O=C1CCC(N2Cc3cc4c(cc3C2=O)OC[C@@H]2CN(CC3CC5(CCN(c6ccc([C@@H]7c8ccc(O)cc8CC[C@@H]7c7ccccc7)cc6)C5)C3)CCN42)C(=O)N1 (stereo partly drawn) [Compound B233, 3-((S)-3-((6-(4-((1R,2S)-6-hydroxy-2-phenyl-1,2,3,4-tetrahydronaphthalen-1-yl)phenyl)-6-azaspiro[3.4]octan-2-yl)methyl)-8-oxo-1,2,3,4,4a,5,8,10-octahydro-9H-pyrazino[1′,2′:4,5][1,4]oxazino[2,3-f]isoindol-9-yl)piperidine-2,6-dione]	> 100	1 to 10	
CN1C[C@@H]2CN(CC3COC4(CCN(c5ccc([C@@H]6c7ccc(O)cc7CC[C@@H]6c6ccccc6)cc5)CC4)C3)CCN2c2cc3c(cc21)C(=O)N(C1CCC(=O)NC1=O)C3 (stereo partly drawn) [Compound B234, 3-((4aS)-3-((8-(4-((1R,2S)-6-hydroxy-2-phenyl-1,2,3,4-tetrahydronaphthalen-1-yl)phenyl)-1-oxa-8-azaspiro[4.5]decan-3-yl)methyl)-6-methyl-8-oxo-2,3,4,4a,5,6,8,10-octahydropyrazino[1,2-a]pyrrolo[3,4-g]quinoxalin-9(1H)-yl)piperidine-2,6-dione]	> 100	< 1	
O=C1CCC(N2C(=O)c3cc4c(cc3C2=O)CN(CC2COC3(CCN(c5ccc([C@@H]6c7ccc(O)cc7CC[C@@H]6c6ccccc6)cc5)CC3)C2)C4)C(=O)N1 (stereo partly drawn) [Compound B235, 2-(2,6-dioxopiperidin-3-yl)-6-((8-(4-((1R,2S)-6-hydroxy-2-phenyl-1,2,3,4-tetrahydronaphthalen-1-yl)phenyl)-1-oxa-8-azaspiro[4.5]decan-3-yl)methyl)-6,7-dihydropyrrolo[3,4-f]isoindole-1,3(2H,5H)-dione]	> 100	1 to 10	
O=C1CC[C@H](NC(=O)c2ccc3c(n2)OC[C@H]2CN(CC4COC5(CCN(c6ccc([C@@H]7c8ccc(O)cc8CC[C@@H]7c7ccccc7)cc6)CC5)C4)CCN32)C(=O)N1 (stereo partly drawn) [Compound B236, (4aR)-N-((S)-2,6-dioxopiperidin-3-yl)-3-((8-(4-((1R,2S)-6-hydroxy-2-phenyl-1,2,3,4-tetrahydronaphthalen-1-yl)phenyl)-1-oxa-8-azaspiro[4.5]decan-3-yl)methyl)-1,2,3,4,4a,5-hexahydropyrazino[1,2-d]pyrido[2,3-b][1,4]oxazine-8-carboxamide]	10 to 100	< 1	
